Reference: PubChem BioAssay (NCI)
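Interpolation was linear, between the two tested concentrations surrounding the appropriate level; five concentrations were tested over 48 hours in 96-well plates. The concentration for 50% growth inhibition is given as GI50. At the TGI there is no net growth.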

What was measured:
Assay in all cases: NCI-60 cell line screen, 48 h
SW-620 colon = system: SW-620 colon
KM12 colon = system: KM12 colon
MALME-3M melanoma = system: MALME-3M melanoma
UO-31 renal = system: UO-31 renal
ACHN renal = system: ACHN renal
NCI-H522 lung = system: NCI-H522 lung
A549 NSCLC = system: A549 NSCLC
HS 578T breast = system: HS 578T breast
PC-3 prostate = system: PC-3 prostate
MDA-N = system: MDA-N

Row | Structure (SMILES) | TGI (SW-620 colon) [µM] | TGI (KM12 colon) [µM] | TGI (MALME-3M melanoma) [µM] | TGI (UO-31 renal) [µM] | TGI (ACHN renal) [µM] | TGI (NCI-H522 lung) [µM] | TGI (A549 NSCLC) [µM] | TGI (HS 578T breast) [µM] | TGI (PC-3 prostate) [µM] | TGI (MDA-N) [µM] | GI50 (MALME-3M melanoma) [µM] | GI50 (ACHN renal) [µM] | GI50 (PC-3 prostate) [µM] | GI50 (KM12 colon) [µM] | GI50 (HS 578T breast) [µM] | GI50 (A549 NSCLC) [µM]
1 | O=C1NC(Cc2ccccc2)C(=O)N2CCCC12 (centres undefined) | > 100 | > 100 | > 100 | > 100 | > 100 | > 100 | > 100 |  |  |  |  |  |  |  |  | 
2 | CCN(CCN(CC)C(=O)NC)C(=O)NC | > 100 |  | > 100 | > 100 | > 100 | > 100 | > 100 | > 100 | > 100 | > 100 |  |  |  |  |  | 
3 | COc1cc(CC2C(=O)OCC2[C@@H](OC(C)=O)c2ccc3c(c2)OCO3)c(Br)c(OC)c1OC (some centres undefined) | > 100 | > 100 | > 100 | > 100 | > 100 | > 100 | > 100 |  |  |  |  |  |  |  |  | 
4 | CCOC(=O)[C@H](CO)Nc1c(O)c2c(c(O)c1Cl)C(=O)C=CC2=O | > 10 | > 10 | > 10 |  | > 10 | > 10 | > 10 | > 10 | > 10 | > 10 |  |  |  |  |  | 
5 | Cc1ccc(Cc2n[nH]c(=O)n2N2C(=O)c3ccccc3C2=O)cc1 | > 100 | > 100 | > 100 | > 100 | > 100 |  | > 100 | > 100 | > 100 | > 100 |  |  |  |  |  | 
6 | COC(=O)[C@@H](NC(=O)c1ccc(CNC(=O)/C(C)=C/c2ccccc2)cc1)C(C)C | > 100 | > 100 | > 100 | > 100 | > 100 | > 100 | > 100 |  | > 100 | > 100 |  |  |  |  |  | 
7 | COc1ccc(Oc2nc3c(N)cc(C(F)(F)F)cc3nc2-c2ccccc2)cc1 | > 100 | 31.6 |  | > 100 | > 100 |  |  | 43 | 59.6 |  |  |  |  |  |  | 
8 | O=C(NCCCc1cn[nH]c(=O)n1)c1cccc2nc3ccccc3nc12 | > 100 | > 100 | > 100 |  | > 100 |  | > 100 | > 100 | > 100 | > 100 |  |  |  |  |  | 
9 | COc1cc(O)c2c(=O)c(OC)c(-c3ccc(OC)c(OC)c3)oc2c1.[Sn] | > 100 |  | > 100 | > 100 | > 100 | > 100 | > 100 | > 100 | > 100 | > 100 | > 100 | > 100 | 68.5 |  |  | 
10 | CN(C)C=Nc1c2c(nc3ccccc13)CCCC2 |  |  | > 100 | > 100 | > 100 | > 100 | > 100 | > 100 | > 100 | > 100 |  |  |  |  |  | 
11 | COc1ccc(C=NCCCN=Cc2ccc(OC)cc2O)c(O)c1 | > 100 | > 100 | 71.5 | > 100 | > 100 | > 100 | > 100 | 63.7 | > 100 |  |  |  |  |  |  | 
12 | CCOC(=O)[C@@]12NN=N[C@@H]1[C@H]1CO[C@H](c3ccccc3)N1C2=O | 25.5 | 35 | 26.8 |  | 28.2 | 13.1 | > 100 | 17.8 | 26 | 25.7 |  |  |  |  |  | 
13 | O=C1C(=Cc2ccc([N+](=O)[O-])o2)C(=O)N(CCc2ccccc2)S(=O)(=O)N1CCc1ccccc1 | 33.9 | > 100 | 32 | > 100 | 31.2 | 34.5 | > 100 |  |  |  |  |  |  |  |  | 
14 | Cc1cc(=O)[nH]c(NNC(C#N)c2ccc(N(C)C)cc2)n1 (centres undefined) | > 100 | > 100 | > 100 | > 100 | > 100 | > 100 | > 100 |  |  |  |  |  |  |  |  | 
15 | Cc1ccc(O)cc1 (tested in a mixture with another compound) | > 100 | > 100 | > 100 | > 100 | > 100 | > 100 | > 100 | > 100 | > 100 |  |  |  |  |  |  | 
16 | NNC(=S)NN/C=C(\C=Nc1ccccc1)[N+](=O)[O-] | > 100 |  | > 100 |  | > 100 | > 100 | > 100 |  |  |  |  |  |  |  |  | 
17 | COCC1N=C(c2cc(OC)c(OC)c(OC)c2-c2cc3c(cc2[C@@H](C)O)OCO3)O[C@H]1c1ccccc1 (some centres undefined) | > 100 | > 100 | > 100 | > 100 |  | > 100 | > 100 |  |  |  |  |  |  |  |  | 
18 | O=C1NC2OC(CO)C(O)C(O)C2O1 (centres undefined) | > 100 | > 100 | > 100 | > 100 | > 100 | > 100 | > 100 |  |  |  |  |  |  |  |  | 
19 | O=C1[C@H](O)[C@@H]2CCC[C@@]23CCCN13 | > 100 | > 100 |  | > 100 | > 100 | > 100 | > 100 | > 100 |  | > 100 |  |  |  |  |  | 
20 | CN(C)C1(c2cc3ccccc3s2)CCCCC1 | > 100 | > 100 |  | > 100 | > 100 | 41.7 | > 100 |  | > 100 | > 100 |  |  |  |  |  | 
21 | CCC1OC2C(CC=C(C)C)=C3OC(C)(O)C(C)(CC)C(=O)C3=C3OC(=O)C=C1C32 (centres undefined) | > 100 | > 100 |  | 69.6 | 94.6 |  | > 100 |  | > 100 |  |  |  |  |  |  | 
22 | COc1cc(/C=C/c2ccc(S(N)(=O)=O)cc2)cc(OC)c1 |  | 57.6 | 41.6 | 52 | 66.3 |  | 71.9 | 48.5 | 56.1 | 56 |  | 23.5 |  | 20.8 | 20.1 | 20.7
23 | COc1ccc(OC)c(-c2cc(=O)c3cc4c(cc3[nH]2)OCO4)c1 | > 100 | > 46 | > 100 | > 100 | > 80.2 | 9.26 | > 71.3 |  |  |  |  |  |  |  |  | 
24 | O=C1C(Cl)C(c2ccc([N+](=O)[O-])cc2)N1n1cnc2ccccc2c1=O (centres undefined) | > 100 | > 100 | > 100 | > 100 | > 100 | > 100 | > 100 |  |  |  |  |  |  |  |  | 
25 | CC(C)(CO)NC(=O)c1cccs1 | > 100 | > 100 | > 100 | > 100 | > 100 | > 100 | > 100 |  | > 100 |  |  |  |  |  |  | 
